According to patent US7884242B2, “N-heterocyclylphthaldiamides as insecticides” (Bayer CropScience AG, priority 2004, dated 2011):
Where a name gives a salt, the structure may show the parent alone.

Assays:
[1] = log P determination by HPLC on reverse phase column, pH 2.3; assay type: physicochemical; settings: reverse phase column (C 18), pH 2.3, 43° C.; for chromatographic logP: reverse phase HPLC column (C 18)
Protocol: The determination of the log P values given in the above table and preparation examples is carried out in accordance with EEC directive 79/831 Annex V.A8 by HPLC (High Performance Liquid Chromatography) on a reverse phase column (C 18). Temperature: 43° C. The determination is carried out under acidic conditions at pH 2.3 with 0.1% aqueous phosphoric acid and acetonitrile as eluents; linear gradient of 10% acetonitrile to 95% acetonitrile. Calibration was is carried out with unbranched alkan-2-ones (with 3 to 16 carbon atoms) of known log P values (Determination of log P values by the retention times by linear interpolation between two sequential alkanones).

[2] = system: green peach aphid (Myzus persicae); experiment: Myzus test (spray treatment); assay type: in vivo; settings: for pest or weed control at 100 g/ha: Myzus persicae, in Brassica oleracea, 120 h, read-out: Death rate in % after 5d; for activity in Myzus test (spray treatment): statement in words
Protocol: [table] For the preparation of a suitable active compound formulation 1 part by weight of the active compound is mixed with the above amounts of solvent and emulsifier and the concentrate is diluted to the desired concentration with water containing emulsifier. China cabbage slices (Brassica pekinensis) that are infected with all stages of the green peach aphid (Myzus persicae) are sprayed with an active compound preparation at the desired concentration. After the desired time the activity in % is determined. Here 100% means that all aphids were killed; 0% means that no aphids were killed.

[3] = system: caterpillars of the fall army worm (Spodoptera frugiperda); experiment: Spodoptera frugiperda test (spray treatment); assay type: in vivo; settings: for pest or weed control at 4 g/ha: Spodoptera frugiperda, 168 h, spray treatment, maize leaf sections, after 7 d, read-out: Death rate in % after 7d; for activity in Spodoptera frugiperda test (spray treatment): statement in words
Protocol: [table] For the preparation of a suitable active compound formulation 1 part by weight of the active compound is mixed with the above amounts of solvent and emulsifier and the concentrate is diluted to the desired concentration with water containing emulsifier. Maize leaf sections (Zea mays) are sprayed with an active compound preparation of the desired concentration and after drying infected with caterpillars of the fall army worm (Spodoptera frugiperda). After the desired time the activity in % is determined. Here 100% means that all caterpillars were killed; 0% means that no caterpillars were killed.

[4] = 100 g/ha, spray treatment, China cabbage slices, after 5 d

| Compound | chromatographic logP [1] | pest or weed control at 100 g/ha [2, 4] | activity in Myzus test (spray treatment) [2] | log P (pH 2.3) [1] | other results |
| --- | --- | --- | --- | --- | --- |
| Cc1nc(Cn2nc(C(F)(F)F)cc2C(F)(F)F)ncc1C(=O)O [2-(3,5-bistrifluoromethylpyrazol-1-yl-methyl)-4-methylpyrimidin-5-carboxylic acid] | 2.68 | – | – | – | – |
| CSC[C@H](C)NC(=O)c1c(Cl)cccc1C(=O)Nc1cc(Cn2nc(C(F)(F)F)nc2C(F)(F)F)sc1C [Example 3] | 3.8 | – | – | – | – |
| CSC[C@H](C)NC(=O)c1c(Cl)cccc1C(=O)Nc1cnc(Cn2nc(C(F)(F)F)cc2C(F)(F)F)nc1C [Example 4, N^1-[2-(3,5-bis-trifluoromethyl-pyrazol-1-ylmethyl)-4-methylpyrimidin-5-yl]-3-chloro-N^2-(S-1-methyl-2-methylsulphanylethyl)phthalamide] | 3.39 | – | – | – | – |
| Cc1nc(Cn2nc(C(F)(F)F)cc2C(F)(F)F)ncc1NC(=O)c1cccc(Cl)c1C(=O)N[C@@H](C)C[S+](C)[O-] (some centres unmarked) [Example 5, N^1-[2-(3,5-bistrifluoromethylpyrazol-1-ylmethyl)-4-methylpyrimidin-5-yl]-3-chloro-N^2-(S-2-methanesulphinyl-1-methylethyl)phthalamide] | 2.17 | 80% | good activity | – | – |
| Cc1nc(Cn2nc(C(F)(F)F)cc2C(F)(F)F)ccc1NC(=O)c1cccc(Br)c1C(=O)NC(C)C[S+](C)[O-] (centres unmarked) [Example 11] | – | – | – | log P (pH 2.3): 2.32 | – |
| CSCC(C)NC(=O)c1c(I)cccc1C(=O)Nc1ccc(Cn2nc(C(F)(F)F)nc2C(F)(F)F)nc1C (centres unmarked) [Example 12] | – | – | – | log P (pH 2.3): 3.52 | – |
| CSC[C@H](C)NC(=O)c1c(Br)cccc1C(=O)Nc1cnc(Cn2nc(C(F)(F)F)cc2C(F)(F)F)nc1C [Example 18] | 3.44 | 100% | good activity | – | pest or weed control at 4 g/ha [3]: 100%; activity in Spodoptera frugiperda test (spray treatment) [3]: good activity |
| CSC[C@H](C)NC(=O)c1c(I)cccc1C(=O)Nc1cnc(Cn2nc(C(F)(F)F)cc2C(F)(F)F)nc1C [Example 19] | 3.55 | 100% | good activity | – | pest or weed control at 4 g/ha [3]: 83%; activity in Spodoptera frugiperda test (spray treatment) [3]: good activity |
| CSC[C@H](C)NC(=O)c1c(Cl)cccc1C(=O)Nc1cnc(Cn2nc(C(F)(F)F)nc2C(F)(F)F)nc1C [Example 20] | 3.24 | 100% | good activity | – | – |
| CSC[C@H](C)NC(=O)c1c(Br)cccc1C(=O)Nc1cnc(Cn2nc(C(F)(F)F)nc2C(F)(F)F)nc1C [Example 21] | 3.29 | 100% | good activity | – | – |
| CSC[C@H](C)NC(=O)c1c(I)cccc1C(=O)Nc1cnc(Cn2nc(C(F)(F)F)nc2C(F)(F)F)nc1C [Example 22] | 3.35 | 90% | good activity | – | – |
| Cc1nc(Cn2nc(C(F)(F)F)cc2C(F)(F)F)ncc1NC(=O)c1cccc(Br)c1C(=O)N[C@@H](C)C[S+](C)[O-] (some centres unmarked) [Example 23] | 2.2 | 80% | good activity | – | – |
| Cc1nc(Cn2nc(C(F)(F)C(F)(F)F)cc2C(F)(F)C(F)(F)F)ncc1NC(=O)c1cccc(Cl)c1C(=O)NC(C)CS(C)(=O)=O (centres unmarked) [Example 25] | – | – | – | log P (pH 2.3): 3.29 | – |
| Cc1nc(Cn2nc(C(F)(F)C(F)(F)F)cc2C(F)(F)C(F)(F)F)ncc1NC(=O)c1cccc(Cl)c1C(=O)NC(C)C[S+](C)[O-] (centres unmarked) [Example 26] | – | – | – | log P (pH 2.3): 2.91 | – |
| CSCC(C)NC(=O)c1c(Cl)cccc1C(=O)Nc1cnc(Cn2nc(C(F)(F)C(F)(F)F)cc2C(F)(F)C(F)(F)F)nc1C (centres unmarked) [Example 27] | – | – | – | log P (pH 2.3): 4.11 | – |
| Cc1nc(Cn2nc(C(F)(F)C(F)(F)F)nc2C(F)(F)F)ncc1NC(=O)c1cccc(Br)c1C(=O)N[C@@H](C)C[S+](C)[O-] (some centres unmarked) [Example 28] | 2.42 | 100% | good activity | – | – |
| Cc1nc(Cn2nc(C(F)(F)C(F)(F)F)nc2C(F)(F)F)ncc1NC(=O)c1cccc(Cl)c1C(=O)N[C@@H](C)C[S+](C)[O-] (some centres unmarked) [Example 29] | 2.41 | 100% | good activity | – | pest or weed control at 4 g/ha [3]: 100%; activity in Spodoptera frugiperda test (spray treatment) [3]: good activity |
| Cc1nc(Cn2nc(C(F)F)cc2C(F)F)ncc1NC(=O)c1cccc(Cl)c1C(=O)NC(C)C[S+](C)[O-] (centres unmarked) [Example 32] | – | – | – | log P (pH 2.3): 1.67 | – |
| Cc1nc(Cn2nc(C(F)F)cc2C(F)F)ncc1NC(=O)c1cccc(Cl)c1C(=O)NC(C)CS(C)(=O)=O (centres unmarked) [Example 33] | – | – | – | log P (pH 2.3): 1.89 | – |

| Compound | chromatographic logP [1] | pest or weed control at 100 g/ha [2, 4] | activity in Myzus test (spray treatment) [2] | log P (pH 2.3) [1] | other results |
| --- | --- | --- | --- | --- | --- |
| CSCC(C)NC(=O)c1c(Cl)cccc1C(=O)Nc1cnc(Cn2nc(C(F)F)cc2C(F)F)nc1C (centres unmarked) [Example 35] | – | – | – | log P (pH 2.3): 2.65 | – |
| Cc1nc(Cn2nc(C(F)(F)F)nc2C(F)(F)F)ncc1NC(=O)c1cccc(Br)c1C(=O)N[C@@H](C)C[S+](C)[O-] (some centres unmarked) [Example 36] | 2.07 | 100% | good activity | – | – |
| Cc1nc(Cn2nc(C(F)(F)F)nc2C(F)(F)F)ncc1NC(=O)c1cccc(Br)c1C(=O)N[C@@H](C)CS(C)(=O)=O [Example 37] | 2.49 | 100% | good activity | – | – |
| Cc1nc(Cn2nc(C(F)(F)F)cc2C(F)(F)F)ncc1NC(=O)c1cccc(Cl)c1C(=O)N[C@@H](C)CS(C)(=O)=O [Example 38] | – | 100% | – | – | – |
| Cc1nc(Cn2nc(C(F)(F)F)cc2C(F)(F)F)ncc1NC(=O)c1cccc(Cl)c1C(=O)N[C@@H](C)C[S+](C)[O-] (some centres unmarked) [Example 39] | – | – | good activity | – | Death rate in % after 5d [2, 4]: 100% |
| Cc1nc(Cn2nc(C(F)(F)F)nc2C(F)(F)F)ncc1NC(=O)c1cccc(I)c1C(=O)N[C@@H](C)C[S+](C)[O-] (some centres unmarked) [Example 40] | 2.13 | 100% | good activity | – | – |
| CSCC(C)NC(=O)c1c(Cl)cccc1C(=O)Nc1ccc(Cn2nc(C(F)(F)C(F)(F)F)cc2C(F)(F)F)nc1C (centres unmarked) [Example 42] | – | – | – | log P (pH 2.3): 3.95 | – |
| CSCC(C)NC(=O)c1c(Cl)cccc1C(=O)Nc1ccc(Cn2nc(C(F)(F)C(F)(F)F)nc2C(F)(F)F)nc1C (centres unmarked) [Example 43] | – | – | – | log P (pH 2.3): 3.80 | – |
| Cc1nc(Cn2nc(C(F)(F)F)cc2C(F)(F)F)ccc1NC(=O)c1cccc(Br)c1C(=O)NC(C)CS(C)(=O)=O (centres unmarked) [Example 45] | – | – | – | log P (pH 2.3): 2.76 | – |
| CSCC(C)NC(=O)c1c(Cl)cccc1C(=O)Nc1ccc(Cn2nc(C(F)(F)C(F)(F)F)c(C(F)(F)F)c2F)nc1C (centres unmarked) [Example 46] | – | – | – | log P (pH 2.3): 4.15 | – |
| CSCC(C)NC(=O)c1c(Cl)cccc1C(=O)Nc1ccc(Cn2nc(C(F)(F)C(F)(F)F)nc2C(F)(F)C(F)(F)F)nc1C (centres unmarked) [Example 47] | – | – | – | log P (pH 2.3): 4.23 | – |
| CSCC(C)NC(=O)c1c(Cl)cccc1C(=O)Nc1ccc(Cn2nc(C(F)(F)C(F)(F)F)cc2C(F)(F)C(F)(F)F)nc1C (centres unmarked) [Example 49] | – | – | – | log P (pH 2.3): 4.37 | – |
| CCOC(=O)c1cnc(Cn2nc(C(F)(F)F)cc2C(F)(F)F)nc1C [Example V-1, ethyl 2-(3,5-bistrifluoromethyl-pyrazol-1-yl-methyl)-4-methylpyrimidine-5-carboxylate] | 3.96 | – | – | – | – |
| CSC[C@H](C)/N=C1\OC(=O)c2cccc(I)c21 [II-1, 4-iodo-3-[(1S)-1-methyl-2-methylsulphanylethylimino]-3H-isobenzofuran-1-one] | 3.87 | – | – | – | – |
| Cc1nc(Cn2nc(C(F)(F)F)cc2C(F)(F)F)ncc1N [IIIa-2, 2-(3,5-bis-trifluoromethylpyrazol-1-yl-methyl)-4-methylpyrimidin-5-yl-amine] | 2.43 | – | – | – | – |
| N=C(N)Cn1nc(C(F)(F)F)cc1C(F)(F)F [IX-1, 2-(3,5-bistrifluoromethyl-pyrazol-1-yl)acetamidine hydrochloride] | 0.74 | – | – | – | – |
| Cc1nc(Cn2nc(C(F)(F)F)cc2C(F)(F)F)ncc1NC(=O)OC(C)(C)C [VI-1, tert-butyl [2-(3,5-bistrifluoromethylpyrazol-1-ylmethyl)-4-methylpyrimidin-5-yl]carbamidate] | 3.84 | – | – | – | – |
| COC(=O)Cn1nc(C(F)(F)F)cc1C(F)(F)F [methyl (3,5-bistrifluoromethyl-pyrazol-1-yl)acetate] | 2.93 | – | – | – | – |
